# From patent US20060069132A1, “Azolecarboxamide herbicides” (priority 2004, published 2006)
# Key:
# [1] = tested on: Surinam grass; test: Test C pre-/postemergence herbicide test; assay type: in vivo, Urochloa decumbens; settings: preemergence
# Summary of the method: (§1)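 Emerged plants at the 1- to 4-leaf stage (2–18 cm), or freshly planted seeds, received test chemicals in a non-phytotoxic solvent mixture with surfactant. Response was visually scored against controls after 12 to 14 days in the greenhouse, on a 0 (no effect) to 100 (complete control) scale.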
# [2] = tested on: corn; test: Test C pre-/postemergence herbicide test; assay type: in vivo, Zea mays; settings: preemergence
# Summary of the method: as §1
# [3] = tested on: giant foxtail; test: Test C pre-/postemergence herbicide test; assay type: in vivo, Setaria faberi; settings: preemergence
# Summary of the method: as §1
# [4] = tested on: johnsongrass; test: Test C pre-/postemergence herbicide test; assay type: in vivo, Sorghum halepense; settings: preemergence
# Summary of the method: as §1
# [5] = tested on: lambsquarters; test: Test C pre-/postemergence herbicide test; assay type: in vivo, Chenopodium album; settings: preemergence
# Summary of the method: as §1
# [6] = tested on: morningglory; test: Test C pre-/postemergence herbicide test; assay type: in vivo, Ipomoea coccinea; parameters: key to Plant response rating, Morningglory: 0 = no effect, 100 = complete control; settings: preemergence
# Summary of the method: as §1
# [7] = tested on: eastern black nightshade; test: Test C pre-/postemergence herbicide test; assay type: in vivo, Solanum ptycanthum; settings: preemergence
# Summary of the method: as §1
# [8] = tested on: yellow nutsedge; test: Test C pre-/postemergence herbicide test; assay type: in vivo, Cyperus esculentus; settings: preemergence
# Summary of the method: as §1
# [9] = tested on: common ragweed; test: Test C pre-/postemergence herbicide test; assay type: in vivo, Ambrosia elatior; parameters: key to Plant response rating, Ragweed: 0 = no effect, 100 = complete control; settings: preemergence
# Summary of the method: as §1
# [10] = tested on: soybean; test: Test C pre-/postemergence herbicide test; assay type: in vivo, Glycine max; settings: preemergence
# Summary of the method: as §1
# [11] = tested on: smallflower umbrella sedge; test: Test C flooded paddy test; assay type: in vivo, Cyperus difformis
# [12] = tested on: ducksalad; test: Test C flooded paddy test; assay type: in vivo, Heteranthera limosa
# [13] = tested on: barnyardgrass; test: Test C flooded paddy test; assay type: in vivo, Echinochloa crus-galli
# Summary of the method: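 Greenhouse test with a 12–14 day hold after application and visual comparison with controls. Emerged plants were 1- to 4-leaf stage (2–18 cm) when sprayed postemergence, and the paddy barnyardgrass was at 2 leaves under flooded conditions. 100 = complete control.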
# [14] = 500 g ai/ha, scale 0 to 100 (0 no effect, 100 complete control), visual, 12 to 14 days
# [15] = 125 g ai/ha, scale 0 to 100 (0 no effect, 100 complete control)
# [16] = 250 g ai/ha, scale of 0 to 100, 0 is no effect, 100 is complete control
# [17] = 500 g ai/ha, visual rating after 12 to 14 days, scale 0 to 100 (0 no effect, 100 complete control)
compound,measurement,setting,value
CCc1nn(C(C)C)nc1C(=O)Nc1cccc(C(=S)N(C)C)c1 [Compound 409],"Plant response rating, Surinam Grass","[1]; 62 g ai/ha, scale 0 to 100",50
same,"Plant response rating (0 = no effect, 100 = complete control), Surinam Grass",[1]; 125 g ai/ha,85
same,"Plant response rating, Surinam Grass",[1]; [14],95
same,"Plant response rating, Corn","[2]; 62 g ai/ha, scale 0 to 100",0
same,"Plant response rating (0 = no effect, 100 = complete control), Corn",[2]; 125 g ai/ha,5
same,"Plant response rating, Corn","[2]; 250 g ai/ha, scale 0-100",75
same,"Plant response rating, Corn",[2]; [14],80
same,"Plant response rating, Foxtail, Giant","[3]; 62 g ai/ha, scale 0 to 100",30
same,"Plant response rating (0 = no effect, 100 = complete control), Foxtail, Giant",[3]; 125 g ai/ha,85
same,"Plant response rating, Foxtail, Giant","[3]; 250 g ai/ha, scale 0-100",95
same,"Plant response rating, Foxtail, Giant",[3]; [14],95
same,"Plant response rating, Johnsongrass","[4]; 62 g ai/ha, scale 0 to 100",35
same,"Plant response rating (0 = no effect, 100 = complete control), Johnsongrass",[4]; 125 g ai/ha,80
same,"Plant response rating, Johnsongrass","[4]; 250 g ai/ha, scale 0-100",95
same,"Plant response rating, Johnsongrass",[4]; [14],95
same,"Plant response rating, Lambsquarters","[5]; 62 g ai/ha, scale 0 to 100",100
same,"Plant response rating, Lambsquarters","[5]; 250 g ai/ha, scale 0-100",100
same,"Plant response rating, Lambsquarters",[5]; [14],100
same,"Plant response rating, Morningglory","[6]; 62 g ai/ha, scale 0 to 100",10
same,"Plant response rating (0 = no effect, 100 = complete control), Morningglory",[6]; 125 g ai/ha,40
same,"Plant response rating, Morningglory",[6]; [14],100
same,"Plant response rating, Nightshade","[7]; 62 g ai/ha, scale 0 to 100",45
same,"Plant response rating (0 = no effect, 100 = complete control), Nightshade",[7]; 125 g ai/ha,85
same,"Plant response rating, Nightshade",[7]; [14],95
same,"Plant response rating, Nutsedge, Yellow","[8]; 62 g ai/ha, scale 0 to 100",0
same,"Plant response rating (0 = no effect, 100 = complete control), Nutsedge, Yellow",[8]; 125 g ai/ha,0
same,"Plant response rating, Nutsedge, Yellow",[8]; [14],55
same,"Plant response rating, Ragweed","[9]; 62 g ai/ha, scale 0 to 100",45
same,"Plant response rating (0 = no effect, 100 = complete control), Ragweed",[9]; 125 g ai/ha,85
same,"Plant response rating, Ragweed",[9]; [14],95
same,"Plant response rating, Soybean","[10]; 62 g ai/ha, scale 0 to 100",0
same,"Plant response rating (0 = no effect, 100 = complete control), Soybean",[10]; 125 g ai/ha,80
same,"Plant response rating, Soybean",[10]; [14],100
same,"Sedge, Umbrella plant response rating","[11]; 62 g ai/ha, scale 0 to 100",70
same,"Sedge, Umbrella plant response rating",[11]; [15],75
same,"Sedge, Umbrella plant response rating",[11]; [16],85
same,"Plant response rating, Sedge, Umbrella",[11]; [17],90
same,Ducksalad plant response rating,"[12]; 62 g ai/ha, scale 0 to 100",30
same,Ducksalad plant response rating,[12]; [15],30
same,Ducksalad plant response rating,[12]; [16],80
same,"Plant response rating, Ducksalad",[12]; [17],85
same,Barnyardgrass plant response rating,"[13]; 62 g ai/ha, scale 0 to 100 (0 no effect, 100 complete control)",20
same,Barnyardgrass plant response rating,[13]; [15],20
same,Barnyardgrass plant response rating,[13]; [16],40
same,"Plant response rating, Barnyardgrass",[13]; [17],60
